PubChem BioAssay AID1259407 (Chemical Carcinogenesis Research Information System (CCRIS), 2018)
Active and inactive are the calls of the source. The rule behind the calls is not given here.

System: CCRIS mutagenicity, Ames/micronucleus/aberration tests
Test: CCRIS mutagenicity studies
[1] = Test System: AMES SALMONELLA TYPHIMURIUM, Strain/Indicator: TA97, Metabolic Activation: HAMSTER, LIVER, S-9, AROCLOR 1254 (10 OR 30%), Method: PREINCUBATION
[2] = Test System: AMES SALMONELLA TYPHIMURIUM, Strain/Indicator: TA97, Metabolic Activation: NONE, Method: PREINCUBATION
[3] = Test System: AMES SALMONELLA TYPHIMURIUM, Strain/Indicator: TA97, Metabolic Activation: RAT, LIVER, S-9, AROCLOR 1254 (10 OR 30%), Method: PREINCUBATION
[4] = Test System: AMES SALMONELLA TYPHIMURIUM, Strain/Indicator: TA98, Metabolic Activation: HAMSTER, LIVER, S-9, AROCLOR 1254 (10 OR 30%), Method: PREINCUBATION
[5] = Test System: AMES SALMONELLA TYPHIMURIUM, Strain/Indicator: TA98, Metabolic Activation: NONE, Method: PREINCUBATION
[6] = Test System: AMES SALMONELLA TYPHIMURIUM, Strain/Indicator: TA98, Metabolic Activation: RAT, LIVER, S-9, AROCLOR 1254 (10 OR 30%), Method: PREINCUBATION
[7] = Test System: AMES SALMONELLA TYPHIMURIUM, Strain/Indicator: TA100, Metabolic Activation: HAMSTER, LIVER, S-9, AROCLOR 1254 (10 OR 30%), Method: PREINCUBATION
[8] = Test System: AMES SALMONELLA TYPHIMURIUM, Strain/Indicator: TA100, Metabolic Activation: NONE, Method: PREINCUBATION
[9] = Test System: AMES SALMONELLA TYPHIMURIUM, Strain/Indicator: TA100, Metabolic Activation: RAT, LIVER, S-9, AROCLOR 1254 (10 OR 30%), Method: PREINCUBATION
[10] = Test System: AMES SALMONELLA TYPHIMURIUM, Strain/Indicator: TA1535, Metabolic Activation: HAMSTER, LIVER, S-9, AROCLOR 1254 (10 OR 30%), Method: PREINCUBATION
[11] = Test System: AMES SALMONELLA TYPHIMURIUM, Strain/Indicator: TA1535, Metabolic Activation: NONE, Method: PREINCUBATION
[12] = Test System: AMES SALMONELLA TYPHIMURIUM, Strain/Indicator: TA1535, Metabolic Activation: RAT, LIVER, S-9, AROCLOR 1254 (10 OR 30%), Method: PREINCUBATION
[13] = Test System: AMES SALMONELLA TYPHIMURIUM, Strain/Indicator: TA1537, Metabolic Activation: HAMSTER, LIVER, S-9, AROCLOR 1254 (30%), Method: PREINCUBATION
[14] = Test System: AMES SALMONELLA TYPHIMURIUM, Strain/Indicator: TA1537, Metabolic Activation: NONE, Method: PREINCUBATION
[15] = Test System: AMES SALMONELLA TYPHIMURIUM, Strain/Indicator: TA1537, Metabolic Activation: RAT, LIVER, S-9, AROCLOR 1254 (30%), Method: PREINCUBATION
[16] = Test System: AMES SALMONELLA TYPHIMURIUM, Strain/Indicator: TA98, Metabolic Activation: NONE, Method: STANDARD PLATE
[17] = Test System: AMES SALMONELLA TYPHIMURIUM, Strain/Indicator: TA100, Metabolic Activation: NONE, Method: STANDARD PLATE

Row | Compound | mutagenic call [1] | mutagenic call [2] | mutagenic call [3] | mutagenic call [4] | mutagenic call [5] | mutagenic call [6] | mutagenic call [7] | mutagenic call [8] | mutagenic call [9] | mutagenic call [10] | mutagenic call [11] | mutagenic call [12] | mutagenic call [13] | mutagenic call [14] | mutagenic call [15] | mutagenic call [16] | mutagenic call [17] | other results
1 | CCCCCCCCCCCCCl | inactive; negative | inactive; negative | inactive; negative | inactive; negative | inactive; negative | inactive; negative | inactive; negative | inactive; negative | inactive; negative | inactive; negative | inactive; negative | inactive; negative | inactive; negative | inactive; negative | inactive; negative |  |  | 
2 | Cc1nc2ccc(N)cc2nc1C |  |  |  |  | active; positive |  |  | inactive; negative |  |  |  |  |  |  |  |  |  | mutagenic call (Test System: AMES SALMONELLA TYPHIMURIUM, Strain/Indicator: TA98, Metabolic Activation: RAT, LIVER, S-9, PCB, Method: PREINCUBATION): active; positive; mutagenic call (Test System: AMES SALMONELLA TYPHIMURIUM, Strain/Indicator: TA100, Metabolic Activation: RAT, LIVER, S-9, PCB, Method: PREINCUBATION): active; positive
3 | C[C@@H]1C[C@@H]([C@H](O)CC2CC(=O)NC(=O)C2)C(=O)[C@@H](C)C1 | inactive; negative | inactive; negative | inactive; negative | inactive; negative | inactive; negative | inactive; negative | inactive; negative | inactive; negative | inactive; negative | inactive; negative | inactive; negative | inactive; negative | inactive; negative | inactive; negative | inactive; negative | inactive; negative | inactive; negative | mutagenic call (Test System: AMES SALMONELLA TYPHIMURIUM, Strain/Indicator: TA98, Metabolic Activation: RAT, LIVER, S-9, AROCLOR, Method: STANDARD PLATE): inactive; negative; mutagenic call (Test System: AMES SALMONELLA TYPHIMURIUM, Strain/Indicator: TA100, Metabolic Activation: RAT, LIVER, S-9, AROCLOR, Method: STANDARD PLATE): inactive; negative; mutagenic call (Test System: MOUSE LYMPHOMA, Strain/Indicator: L5178Y (TK+/TK-), Metabolic Activation: NONE, Method: SUSPENSION/PLATE): active; positive
4 | Cc1c(Cl)cnc2ccccc12 |  |  |  |  |  |  |  |  |  |  |  |  |  |  |  |  |  | mutagenic call (Test System: AMES SALMONELLA TYPHIMURIUM, Strain/Indicator: TA100, Metabolic Activation: RAT, LIVER, S-9, Method: PREINCUBATION): inactive; negative
5 | O=C(Nc1ccc([N+](=O)[O-])cc1)c1csc([N+](=O)[O-])c1 |  |  |  |  |  |  |  |  |  |  |  |  |  |  |  | active; positive | active; positive | 
6 | Cc1c(C)c2c(nc(N)n2C)c2nccnc12 |  |  |  |  |  |  |  |  |  |  |  |  |  |  |  |  |  | mutagenic call (Test System: AMES SALMONELLA TYPHIMURIUM, Strain/Indicator: TA98, Metabolic Activation: RAT, LIVER, S-9, AROCLOR 1254, Method: STANDARD PLATE): active; positive
